Assay results taken from patent US8030298B2, “17β-HSD1 and STS inhibitors” (Abbott Products GmbH, priority 2005, dated 2011).

Biological target: T1, recombinant human 17β-hydroxysteroid dehydrogenase type 1 (Homo sapiens, UniProt P14061)
T1 construct: made in house; host or cells: Sf9 insect cells (baculovirus, Bac to Bac Expression System)
T1 sequence (P14061 1-328): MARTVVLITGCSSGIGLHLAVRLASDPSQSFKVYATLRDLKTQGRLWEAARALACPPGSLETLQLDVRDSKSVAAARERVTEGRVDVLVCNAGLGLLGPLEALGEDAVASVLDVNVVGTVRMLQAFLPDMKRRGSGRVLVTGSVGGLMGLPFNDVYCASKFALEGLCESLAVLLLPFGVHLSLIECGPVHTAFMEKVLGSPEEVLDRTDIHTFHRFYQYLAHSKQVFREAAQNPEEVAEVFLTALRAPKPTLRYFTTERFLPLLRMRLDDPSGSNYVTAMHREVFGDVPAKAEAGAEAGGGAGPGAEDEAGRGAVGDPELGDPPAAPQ
Assay: Inhibition of recombinant human 17β-hydroxysteroid dehydrogenase type 1 (3H-estrone to estradiol conversion, HPLC)
Type: biochemical
Details: read-out: Inhibition of rec. 17β-HSD1 (% inhibition); for inhibition at 0.1 µM: inhibitor concentration 100 nM; for inhibition at 1 µM: 0.5 h, inhibitor concentration 1 μm
Description: 17β-HSD1 purification: Recombinant baculovirus was generated by the “Bac to Bac Expression System” (Invitrogen). Recombinant bacmid was transfected to Sf9 insect cells using “Cellfectin Reagent” (Invitrogen). 60 h later cells were harvested; the microsomal fraction was isolated as described by Puranen et al. (1994). Aliquots were stored frozen until determination of enzymatic activity.
Assay—Inhibition of recombinant human 17β-hydroxysteroid dehydrogenase type 1: Recombinant protein (0.1 μg/ml) was incubated in 20 mM KH2PO4 pH 7.4 with 30 nM 3H-estrone and 1 mM NADPH for 30 min at RT, in the presence of potential inhibitors at concentrations of 1 μM or 0.1 μM. Inhibitor stock solutions were prepared in DMSO. Final concentration of DMSO was adjusted to 1% in all samples. The enzyme reaction was stopped by addition of 10% trichloroacetic acid (final concentration). Samples were centrifuged in a microtiter plate at 4000 rpm for 10 min. Supernatants were applied to reverse phase HPLC on a Waters Symmetry C18 column, equipped with a Waters Sentry Guard column. Isocratic HPLC runs were performed at RT at a flow rate of 1 ml/min of acetonitrile:water 48:52 as running solvent. Radioactivity was monitored in the eluate by a Packard Flow Scintillation Analyzer. Total radioactivity for estrone and estradiol were determined in each sample and percent conversion of estrone to estradiol was calculated according to the following formula:
Percent inhibition was calculated as follows: % inhibition=100−% conversion

| Compound | inhibition at 0.1 µM | inhibition at 1 µM |
| --- | --- | --- |
| Cc1cnc(NC(=O)CC[C@@H]2CC(F)(F)[C@@]3(C)CC[C@@H]4c5ccc(O)cc5CC[C@H]4[C@H]23)s1 [Example 93, 3-(17,17-Difluoro-3-hydroxy-estra-1,3,5(10)-trien-15β-yl)-N-(5-methyl-thiazol-2-yl)-propionamide] | 59.5% | – |
| C[C@]12CC[C@@H]3c4ccc(O)cc4CC[C@H]3[C@@H]1[C@H](CCCC(=O)N1CCOCC1)c1cn[nH]c12 [Example 162, 3-Hydroxy-15β-(4-morpholin-4-yl-4-oxo-butyl)-estra-1,3,5(10)-trien-[16,17-c]-pyrazole] | 63% | 93% |
| C[C@]12CC[C@@H]3c4ccc(OS(N)(=O)=O)cc4CC[C@H]3[C@@H]1[C@H](CCCC(=O)N1CCOCC1)CC2=O [Example 163, 3-Sulphamate-15β-(4-morpholin-4-yl-4-oxo-butyl)-estra-1,3,5(10)-trien-17-one] | 10% | 43% |
| C[C@]12CC[C@@H]3c4ccc(OS(=O)(=O)O)cc4CC[C@H]3[C@@H]1[C@H](CCCC(=O)N1CCOCC1)CC2=O [Example 164, 3-Sulphate-15β-(4-morpholin-4-yl-4-oxo-butyl)-estra-1,3,5(10)-trien-17-one] | 3% | 27% |
